Laboratory results from ChEMBL document CHEMBL4622856, “Essential Medicinal Chemistry of Essential Medicines” (J Med Chem, 2020).

Test: Lipophilicity, log P of the compound
Format: physicochemical
Conditions: octanol/water

Row | Structure (SMILES) | logP
1 | Nc1nc2c(ncn2COCCO)c(=O)[nH]1 [ACYCLOVIR] | 1 to 4
2 | O=c1[nH]cc(F)c(=O)[nH]1 [FLUOROURACIL] | 1 to 4
3 | Clc1ccc(COC(Cn2ccnc2)c2ccc(Cl)cc2Cl)c(Cl)c1 (stereo unspecified) [MICONAZOLE] | > 5
4 | CC1(C)C(C=C(Cl)Cl)C1C(=O)OCc1cccc(Oc2ccccc2)c1 (stereo unspecified) [PERMETHRIN] | > 5
5 | CN(C/C=C/C#CC(C)(C)C)Cc1cccc2ccccc12 [TERBINAFINE] | > 5
6 | NC(N)=O [UREA] | 1 to 4
